In patent US12553041B2, “Formulations and doses of pegylated uricase” (Cartesian Therapeutics Inc., priority 2019, dated 2026):
“And” between values parts separate entries of the source, which are not always exact repeats. Equal values may be shown once. Read-outs that look alike come from different tables or passages of the source.

Legend:
[1] = system: patients with hyperuricemia and gout; details: cited from earlier work; for Subjects that required treatment for at least one gout flare: first 8 weeks, with gout flare prophylaxis; for Flares per patient month (flare frequency): worked out from literature data
patients with gout = details: cited from earlier work; for Patients with gout flares requiring treatment in a month: colchicine prophylaxis; for Flares per patient month (flare frequency): worked out from literature data
uricase activity = details: human, in vivo
Procedure: Methods: Patients with symptomatic gout (≥1 tophus, gout flare within 6 months or gouty arthropathy) and elevated SUA ≥6 mg/dL were treated with fixed doses of the pegylated uricase (0.2 mg/kg) in combination with SEL-110 (0.1 and 0.15 mg/kg), or the pegylated uricase (0.2 or 0.4 mg/kg) alone as a control. Patients were infused in 28-day cycles up to 5 times. Safety, tolerability, sUA, ADAs, and uricase activity were monitored.
Uricase activity was measured fluorometrically. As uricase converts uric acid into allantoin and H2O2, horseradish peroxidase was added and reached with H2O2 and a fluorescent probe to yield a quantifiable signal.

[2] = system: mice genetically deficient in endogenous uricase; experiment: Proof of concept study in uricase deficient mice; format: in vivo
Procedure: A pharmacology study in mice that were genetically deficient in endogenous uricase was conducted. The study evaluated the efficacy of a dose regimen consisting of three immunizations with SEL 212 followed by doses of pegsiticase alone in preventing the formation of ADAs to pegsiticase. The treatment period consisted of the first 14 days of the study. In the study, mice were separated into three treatment groups. During the treatment period: • the first group, referred to as the Untreated Group, received no treatment; • the second group, referred to as the Pegsiticase Group, was treated with pegsiticase alone; and • the third group, referred to as the SVP Rapamycin+Pegsiticase Group, was treated with SVP Rapamycin co administered with pegsiticase.
The Pegsiticase Group and SVP Rapamycin+Pegsiticase Group were treated on days zero, seven and 14 of the treatment period. Each group was then treated with pegsiticase alone on days 35 and 42 of the study, or the challenge period. Uricase specific ADA levels were recorded to determine the formation of ADAs to pegsiticase. Uric acid levels were measured to determine effectiveness of SVP Rapamycin co administered with pegsiticase in lowering uric acid levels below 6 mg/dl, which is the treatment target for gout patients.

[3] = system: patients with serum uric acid levels greater than 6 mg/dl; experiment: Phase 1b clinical trial, SVP Rapamycin alone, pegsiticase alone or SEL 212
Procedure: The Phase 1b clinical trial enrolled 63 patients with serum uric acid levels greater than 6 mg/dl separated into 11 cohorts. A single intravenous infusion of SVP Rapamycin alone at the following ascending dose levels was administered to four cohorts in ascending order. Each cohort consisted of seven patients and were designated as follows: Cohort #1 (0.03 mg/kg), Cohort #3 (0.1 mg/kg), Cohort #5 (0.3 mg/kg) and Cohort #7 (0.5 mg/kg) collectively the SVP Rapamycin Cohorts. After a cohort of the SVP-Rapamycin alone had successfully and safely been dosed the corresponding dose level of SVP Rapamycin was combined with a fixed dose of pegsiticase (0.4 mg/kg). The combination was co-administered sequentially as a single intravenous infusion, with the SVP Rapamycin infusion preceding the pegsiticase infusion. The cohort designation is as follows for the six cohorts (5 patients per cohort), which were Cohort #2 (SVP Rapamycin 0.03 mg/kg+0.4 mg/kg pegsiticase), Cohort #4 (SVP Rapamycin 0.1 mg/kg+0.4 mg/kg pegsiticase), Cohort #6 (SVP Rapamycin 0.3 mg/kg+0.4 mg/kg pegsiticase), Cohort #10 (0.4 mg/kg pegsiticase+0.03 mg/kg SVP Rapamycin separated by 48 hours), Cohort #12 (SVP Rapamycin 0.15 mg/kg+0.4 mg/kg pegsiticase) and Cohort #14 (SVP Rapamycin 0.1 mg/kg+0.4 mg/kg pegsiticase) collectively the SEL 212 Cohorts. In Cohort #9 a fixed amount of pegsiticase alone at a dose level of 0.4 mg/kg was administered to five patients, which is referred to as the Pegsiticase Cohort. […] The subjects were monitored during a 30 day period post infusion with visits occurring on day 7, 14,21 and the end of trial visit on day 30. Blood and serum of each patient was evaluated for serum uric acid, ADAs (specifically anti-PEG, anti-uricase and anti-pegsiticase) and safety parameters. The primary objective of the Phase 1b clinical trial was to evaluate the safety and tolerability of SVP Rapamycin alone and in combination with a fixed dose of pegsiticase. A secondary clinical objective was to evaluate the ability of SVP Rapamycin co-administered with pegsiticase to reduce serum uric acid levels and mitigate the formation of uricase specific ADAs when compared to administration of pegsiticase alone.

anti-uricase IgG = experiment: Anti-uricase antibody titer by sandwich ELISA, monthly dosing in symptomatic gout patients; format: in vivo, human
Procedure: Safety, tolerability, sUA, ADAs, and uricase activity were monitored.
In this example, “responder” indicates an individual with serum uric acid values […] and serum uric acid ≤1 mg/dL on day 21 (stopping rule). In this example, a “non-responder” is a subject having serum uric acid levels ≥6 mg/dL at any time during a 28 day dosing cycle. The “maximum titer” is the maximum titer observed during a 28 day dosing cycle.
Anti-uricase antibodies were detected using a sandwich ELISA. […] Uricase activity was measured fluorometrically.

[4] = system: subjects with elevated serum uric acid levels greater than 6 mg/dl; experiment: Phase 1a clinical trial, single intravenous infusion of pegsiticase alone; format: in vivo
Procedure: The Phase 1a clinical trial for SEL 212 was an ascending dose trial of pegsiticase alone in 22 subjects with elevated serum uric acid levels greater than 6 mg/dl who were separated into five cohorts. Each cohort received a single intravenous infusion of pegsiticase at the following dose levels of 0.1 mg/kg for Cohort #1, 0.2 mg/kg for Cohort #2, 0.4 mg/kg for Cohort #3, 0.8 mg/kg for Cohort #4 and 1.2 mg/kg for Cohort #5. Dosing began with the lowest dose and only after an entire cohort was safely dosed was the next cohort started.
FIG. 4 depicts average serum uric acid levels of the Phase 1a clinical trial's five cohorts tested at different measurement intervals (Day 7, 14, 21 and 30) during the course of the 30 day period following the single intravenous infusion of pegsiticase at the outset of the trial.
The serum uric acid levels were measured at baseline and days seven, 14, 21 and 30 and uricase specific ADA levels at baseline and days seven, 14 and 30 following a single intravenous injection of pegsiticase. Uricase specific ADA levels at day 21 in the Phase 1a clinical trial were not measured. Based on the results from the Phase 1a clinical trial, it was observed that pegsiticase at a tolerated dose is capable of achieving and maintaining a reduction of serum uric acid below the target of 6 mg/dl for a 30 day period in the absence of inhibitory uricase specific ADAs.

nonhuman primates = experiment: Proof of concept study in nonhuman primates, uricase specific ADAs; format: in vivo; details: pegsiticase alone, five monthly doses; by the end of the study
Procedure: A preclinical study to evaluate the ability of SVP Rapamycin to mitigate the formation of uricase specific ADAs in nonhuman primates was also conducted. As depicted in FIG. 3, during the study: • pegsiticase was administered alone, referred to as the Empty Nanoparticle Group, or • was co-administered with one of two dose levels of SVP Rapamycin, referred to as the SVP Rapamycin 0.1× and SVP Rapamycin 1× Groups, respectively. The SVP Rapamycin 0.1× Group received a dose level of SVP Rapamycin of 0.3 mg/kg and the SVP Rapamycin 1× Group received a dose level of SVP Rapamycin of 3 mg/kg.
The Empty Nanoparticle Group received three monthly doses of pegsiticase and each of the SVP Rapamycin 0.1× Group and SVP Rapamycin 1× Group received three monthly doses of pegsiticase co-administered with SVP Rapamycin. All groups then received two monthly doses of pegsiticase alone. The SVP Rapamycin 0.1× Group received one tenth of the dose administered in the SVP Rapamycin 1× Group.

[5] = system: patients with refractory gout; details: cited from earlier work; for Flares per patient month (flare frequency): worked out from literature data; for Mean uric acid levels at four weeks: monthly dosing

Cc1nc(-c2ccc(OCC(C)C)c(C#N)c2)sc1C(=O)O [Febuxostat, febuxostat]
Subjects that required treatment for at least one gout flare ([1]; 80 mg/day, out of 255 subjects): 55 | Flares per patient month (flare frequency) ([1]; 80 mg/day): 0.22 flares per patient month | Flares per patient month (flare frequency) ([1]; 80 mg/day, listed as febuxostat): at least 0.22 flares per patient month | Subjects that required treatment for at least one gout flare ([1]; 120 mg/day, out of 250 subjects): 90 | Flares per patient month (flare frequency) ([1]; 120 mg/day): 0.36 flares per patient month | Flares per patient month (flare frequency) ([1]; 120 mg/day, listed as febuxostat): ≥ 0.36 flares per patient month

O=C(O)CSc1nnc(Br)n1-c1ccc(C2CC2)c2ccccc12 [Lesinurad, lesinurad]
Patients with gout flares requiring treatment in a month (patients with gout; 200 mg daily, out of 46 patients): 10 | Time of efficacy (area under curve of mean AIN levels over time) (patients with gout; 200 mg/day): 158.5 | Flares per patient month (flare frequency) (patients with gout; 200 mg/day): 0.22 flares per patient month | Patients with gout flares requiring treatment in a month (patients with gout; 400 mg daily, out of 42 patients): 13 | Time of efficacy (area under curve of mean AIN levels over time) (patients with gout; 400 mg/day): 165.8 | Flares per patient month (flare frequency) (patients with gout; 400 mg/day): 0.31 flares per patient month | Patients with gout flares requiring treatment in a month (patients with gout; 600 mg daily, out of 48 patients): 15 | Time of efficacy (area under curve of mean AIN levels over time) (patients with gout; 600 mg/day): 167.5 | Flares per patient month (flare frequency) (patients with gout; 600 mg/day): 0.31 flares per patient month

Recombinant Pegylated Candida Urate Oxidase [pegsiticase]
Average uricase activity AUC (uricase activity): 3437 mU/dL*wk | Uric acid levels ([2]; after the first dose in the treatment period): below 6 mg/dl | Uric acid levels ([2]; subsequent doses in the treatment period and challenge period): > 6 mg/dL | Uricase specific ADA levels (antibody formation) ([2]; uricase deficient mice, treatment period (days 0, 7, 14) and challenge period (days 35, 42)): developed uricase specific ADAs | Subjects that returned to baseline serum uric acid levels by day 30 ([3]; Cohort #9: pegsiticase alone 0.4 mg/kg): four of the five | Enzyme activity past day 14 ([3]; pegsiticase alone 0.4 mg/kg, Cohort #3 Phase 1a and Cohort #9 Phase 1b): loose the enzyme activity | Uricase specific ADA formation ([3]; pegsiticase alone 0.4 mg/kg, Cohort #3 Phase 1a and Cohort #9 Phase 1b, resulting in return to baseline serum uric acid): uricase specific ADA formation at day 14 | Serum uric acid, initial control ([3]; pegsiticase alone 0.4 mg/kg, Cohort #3 Phase 1a and Cohort #9 Phase 1b, up to day 14): below 6 mg/dL | Treatment periods with maximum antibody titers <1080 (anti-uricase IgG; 28-day cycles, SEL-212 111/133, pegylated uricase alone 1/7 treatment periods): 14.3% | Anti-uricase antibodies (anti-uricase IgG; pegylated uricase alone, discontinued from the study within the first two months): developed high titer antibodies | Flare in 1st month ([4]; individual subject with history of gout, SEL-037 0.8 mg/kg): no | Flare in 1st month ([4]; individual subjects with history of gout, SEL-037 0.1 mg/kg, 0.1 mg/kg): no and yes (2×) and yes (positive for | Flare in 1st month ([4]; individual subjects with history of gout, SEL-037 0.2 mg/kg, 0.2 mg/kg): no and yes (mild gout, right | Subjects with a history of gout with signs of gout flare in the first month ([4]; pegsiticase alone, 4 out of 7 patients): 57% | Onset of reduction of average serum uric acid levels ([4]; single IV infusion, 0.1 to 1.2 mg/kg): within hours | Serious adverse events and tolerability ([4]; single IV infusion, five dose levels 0.1 to 1.2 mg/kg): no serious adverse events and was well tolerated | Uricase specific ADAs ([4]; single IV infusion, varying levels): induced uricase specific ADAs in all subjects | Serum uric acid maintained ([4]; tolerated dose, 30 day period, in the absence of inhibitory uricase specific ADAs): < 6 mg/dL | Uricase specific ADAs (nonhuman primates): high levels of uricase specific ADAs

pegloticase [KRYSTEXXA®]
Treated subjects that developed ADAs ([5]; all KRYSTEXXA-treated subjects): 89% | Flares per patient over the first 3 months ([5]; biweekly pegloticase, 85 patients): 2.3 flares per patient | Time of efficacy (area under curve of mean AIN levels over time) ([5]; biweekly, nonresponders): Nonresponders-84.35 | Time of efficacy (area under curve of mean AIN levels over time) ([5]; biweekly, responders): Responders-26.6 | Flares per patient month (flare frequency) ([5]; biweekly): 0.77 flares per patient month | Subjects classified as non-responders ([5]; monthly dosing cohorts): 65% | Subjects classified as responders (uric acid below 6 mg/dl for 80% of the time at months three and six) ([5]; monthly dosing cohorts): 35% | Mean uric acid levels at four weeks ([5]; non-responders): above 6 mg/dl | Mean uric acid levels at four weeks ([5]; responders): above 4 mg/dl | Flares per patient over the first 3 months ([5]; monthly pegloticase, 84 patients): 2.7 flares per patient | Time of efficacy (area under curve of mean AIN levels over time) ([5]; monthly, nonresponders): Nonresponders-99.75 | Time of efficacy (area under curve of mean AIN levels over time) ([5]; monthly, responders): Responders-53.55 | Flares per patient month (flare frequency) ([5]; monthly, listed as Pegloticase): 0.90 flares per patient month | Flares per patient month (flare frequency) ([5]; monthly, listed as pegloticase): 0.9 flares per patient month
